Test results published in US8318762B2, “Pyrazolospiroketone acetyl-CoA carboxylase inhibitors” (Pfizer Inc., priority 2008, dated 2012).

Tests used:
rat liver ACC = rat liver ACC (Rattus norvegicus, UniProt P11497); assay type: biochemical; conditions: rat liver ACC radio enzymatic assay
Procedure: [1] Preparation of rat liver ACC. Rat liver ACC was obtained from rat liver based upon standard procedures such as those described by Thampy and Wakil (J. Biol. Chem. 260: 6318-6323; 1985) using the following method.
Male CD rats weighing 150-200 g were fasted for 18-24 hours and then fed a high sucrose diet (AIN-76A rodent diet; Cat # D10001, Research Diets Inc., New Brunswick, N.J.), for 3 days at which time they were sacrificed by CO2 asphyxiation. The livers were removed, rinsed in ice-cold phosphate-buffered saline (PBS), and homogenized in 5 volumes of homogenization buffer (50 mM potassium phosphate, pH 7.5, 10 mM EDTA, 10 mM 2-mercaptoethanol, 2 mM benzamidine, 0.2 mM phenylmethylsulfonylfluoride (PMSF), 5 mg/L each leupeptin, aprotinin, and antitrypsin) in a Waring® blender for 1 minute at 4° C. All subsequent operations were carried out at 4° C. The homogenate has made 3% with respect to polyethylene glycol (PEG) by the addition of 50% PEG solution and centrifuged at 20,000×g for 15 minutes. The resulting supernatant was adjusted to 5% PEG with the addition of 50% PEG solution and stirred for 5 minutes. The pellet (contains ACC activity) was collected by centrifugation at 20,000×g for 20 minutes, rinsed with ice-cold doubly distilled water to remove excess PEG and re-suspended in one-fourth the original homogenate volume with homogenization buffer. Ammonium sulfate (200 g/liter) was slowly added with stirring. After 45 minutes the enzyme is collected by centrifugation for 30 minutes at 20,000×g, re-suspended in 10 mL of 50 mM HEPES, pH7.5, 0.1 mM DTT, 1.0 mM EDTA, and 10% glycerol and desalted on a Sephadex™ G-25 column (2.5 cm×50 cm) (Pharmacia, Piscataway N.J. now GE Healthcare) equilibrated with the same buffer. The desalted enzyme preparation was stored in aliquots at −70° C. Immediately prior to use, frozen rat liver ACC aliquots were thawed, diluted to 500 μg/mL in buffer containing 50 mM HEPES, pH7.5, 10 mM MgCl2, 10 mM tripotassium citrate, 2.0 mM dithiothreitol (DTT), and 0.75 mg/mL fatty acid-free bovine serum albumin (BSA) and pre-incubated at 37° C. for 30 minutes.
[2] Measurement of rat liver ACC inhibition. For measurement of ACC activity and assessment of ACC inhibition, test compounds were dissolved in dimethylsulfoxide (DMSO) and 1 μL aliquots were added to a clear bottom, 96-well plates (Perkin-Elmer PN#1450-514). Control wells contain 1 μL of DMSO alone or 1 μL of high inhibition compound. The enzyme obtained from rat liver as described above was activated in Enzyme buffer at 37° C. for 30 minutes prior to addition to compound plate. All wells receive 75 μL of activated enzyme (1.33×) in a buffer containing 50 mM HEPES, pH7.5, 7.5 mM MgCl2 7.5 mM tripotassium citrate, 2 mM DTT, 50 mg/mL BSA. The activated enzyme was pre-incubated with the cmpd for 10 minute prior to initiating the reaction through the addition of 25 μL of substrate solution containing 50 mM HEPES, pH7.5, 7.5 mM MgCl2 7.5 mM tripotassium citrate, 2 mM DTT, 50 mg/mL BSA, 120 μM acetyl-CoA, 8.0 mM ATP, 38.4 mM KHCO3, and 1.6 mM NaH[^14C]O3 ([…]). The final substrate concentrations in the reaction were 30 μM Acetyl-CoA, 9.6 mM KHCO3, 0.4 mM NaH[^14C]O3, and 2 mM ATP. The reaction was terminated after 10 mins by the addition of 25 μL 3N HCl and the plates were dried at 50° C. for a minimum 20 hrs. 30 μL of water was added to the dried plate and mixed for 5 minutes. 95 μL of Optiphase Supermix liquid scintillation fluid (Perkin Elmer, Waltham, Mass.) was added and the plates are mixed for 20 minutes. Incorporation of ^14C into MCoA was measured using a Wallac Trilux 1450 Microbeta LSC luminescence counter.

recombinant human ACC2 = molecular target: T1, recombinant human ACC2 (Homo sapiens, UniProt O00763); experiment: Measurement of human ACC2 inhibition (recombinant hACC2 Transcreener ADP detection FP assay); assay type: biochemical; conditions: recombinant hACC2 transcreener assay; read-out: rhACC2 IC50
T1 construct: a full length Cytomax clone of ACC2 was purchased from Cambridge Bioscience Limited; made in house; host or cells: CHO cells (tetracycline induction, pcDNA5 FRT TO-TOPO); purified on a Softlink Soft Release Avidin column
Procedure, shortened: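 Purified hACC2 from tetracycline-induced CHO cells (avidin-column eluate) was run in 50 mM HEPES pH7.5, 5 mM MgCl2, 5 mM citrate, 2 mM DTT, 0.5 mg/mL BSA with 30 μM acetyl-CoA, 50 μM ATP and 8 mM KHCO3. Reaction lasted 1 hour at room temperature; ADP was detected by Transcreener FP after another 1 hour.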

[1] = test system: malonyl-CoA levels in muscle tissue; experiment: Acute in vivo assessment of ACC inhibition: malonyl-CoA levels in muscle tissue (quadriceps); parameters: species or system male Sprague-Dawley Rats; conditions: relative to chow-fed vehicle control group, % decrease +/- SEM
Procedure: (§1) The ACC inhibitory activity of the compound of the present invention can be confirmed in vivo by evaluation of their ability to reduce malonyl-CoA levels in liver and muscle tissue from treated animals.
(§2) Measurement of malonyl-CoA production inhibition in experimental animals. In this method, male Sprague-Dawley Rats, maintained on standard chow and water ad libitum (225-275 g), were randomized prior to the study. Animals were either fed, or fasted for 18 hours prior to the beginning of the experiment. Two hours into the light cycle the animals were orally dosed with a volume of 5 mL/kg, (0.5% methyl cellulose; vehicle) or with the appropriate compound (prepared in vehicle). Fed vehicle controls were included to determine baseline tissue malonyl-CoA levels while fasted animals were included to determine the effect fasting had on malonyl-CoA levels. One hour after compound administration the animals were asphyxiated with CO2 and the tissues were removed. Specifically, blood was collected by cardiac puncture and placed into BD Microtainer tubes containing EDTA (BD Biosciences, NJ), mixed, and placed on ice. Plasma was used to determine drug exposure. Liver and quadriceps were removed, immediately freeze-clamped, wrapped in foil and stored in liquid nitrogen.
(§3) Tissues were pulverized under liquid N2 to ensure uniformity in sampling. Malonyl-CoA was extracted from the tissue (150-200 mg) with 5 volumes 10% […] in Lysing Matrix A (MP Biomedicals, PN 6910) in a FastPrep FP120 (Thermo Scientific, speed=5.5; for 45 seconds). The supernatant containing malonyl-CoA was removed from the cell debris after centrifugation at 15000×g for 30 minutes (Eppendorf Centrifuge 5402). Samples were stably frozen at −80 C until analysis is completed.
(§4) Analysis of malonyl CoA levels in liver and muscle tissue can be evaluated using the following methodology.
(§5) The method utilizes the following materials: Malonyl-CoA tetralithium salt and malonyl-^13C3-CoA trilithium salt which were purchased from Isotec (Miamisburg, Ohio, USA), sodium perchlorate (Sigma, cat no. 410241), trichloroacetic acid (ACROS, cat no. 42145), phosphoric acid (J. T. Baker, cat no. 0260-01), ammonium formate (Fluke, cat no. 17843), methanol (HPLC grade, J. T. Baker, cat no. 9093-33), and water (HPLC grade, J. T. Baker, 4218-03) were used to make the necessary mobile phases. Strata-X on-line solid phase extraction columns, 25 μm, 20 mm×2.0 mm I.D (cat no. 00M-S033-B0-CB) were obtained from Phenomenex (Torrance, Calif., USA). SunFire C18 reversed-phase columns, 3.5 μm, 100 mm×3.0 mm I.D. (cat no. 186002543) were purchased from Waters Corporation (Milford, Mass., USA).
(§6) This method may be performed utilizing the following equipment. Two-dimensional chromatography using an Agilent 1100 binary pump, an Agilent 1100 quaternary pump and two Valco Cheminert 6-port two position valves. Samples were introduced via a LEAP HTC PAL auto sampler with Peltier cooled stack maintained at 10° C. and a 20 μL sampling loop. The needle wash solutions for the autosampler are 10% trichloroacetic acid in water (w/v) for Wash 1 and 90:10 methanol:water for Wash 2. The analytical column (Sunfire) was maintained at 35° C. using a MicroTech Scientific Micro-LC Column Oven. The eluant was analyzed on an ABI Sciex API3000 triple quadrupole mass spectrometer with Turbo Ion Spray.
(§7) Two-dimensional chromatography was performed in parallel using distinct gradient elution conditions for on-line solid phase extraction and reversed-phase chromatography. The general design of the method was such that the first dimension was utilized for sample clean-up and capture of the analyte of interest followed by a brief coupling of both dimensions for elution from the first dimension onto the second dimension. The dimensions were subsequently uncoupled allowing for gradient elution of the analyte from the second dimension for quantification while simultaneously preparing the first dimension for the next sample in the sequence. […]

[2] = test system: malonyl-CoA levels in liver; experiment: Acute in vivo assessment of ACC inhibition: malonyl-CoA levels in liver tissue; parameters: species or system male Sprague-Dawley Rats; conditions: relative to chow-fed vehicle control group, % decrease +/- SEM
Procedure: as §1, §2, §3, §4, §5, §6, §7

T1 sequence (O00763 whole entry): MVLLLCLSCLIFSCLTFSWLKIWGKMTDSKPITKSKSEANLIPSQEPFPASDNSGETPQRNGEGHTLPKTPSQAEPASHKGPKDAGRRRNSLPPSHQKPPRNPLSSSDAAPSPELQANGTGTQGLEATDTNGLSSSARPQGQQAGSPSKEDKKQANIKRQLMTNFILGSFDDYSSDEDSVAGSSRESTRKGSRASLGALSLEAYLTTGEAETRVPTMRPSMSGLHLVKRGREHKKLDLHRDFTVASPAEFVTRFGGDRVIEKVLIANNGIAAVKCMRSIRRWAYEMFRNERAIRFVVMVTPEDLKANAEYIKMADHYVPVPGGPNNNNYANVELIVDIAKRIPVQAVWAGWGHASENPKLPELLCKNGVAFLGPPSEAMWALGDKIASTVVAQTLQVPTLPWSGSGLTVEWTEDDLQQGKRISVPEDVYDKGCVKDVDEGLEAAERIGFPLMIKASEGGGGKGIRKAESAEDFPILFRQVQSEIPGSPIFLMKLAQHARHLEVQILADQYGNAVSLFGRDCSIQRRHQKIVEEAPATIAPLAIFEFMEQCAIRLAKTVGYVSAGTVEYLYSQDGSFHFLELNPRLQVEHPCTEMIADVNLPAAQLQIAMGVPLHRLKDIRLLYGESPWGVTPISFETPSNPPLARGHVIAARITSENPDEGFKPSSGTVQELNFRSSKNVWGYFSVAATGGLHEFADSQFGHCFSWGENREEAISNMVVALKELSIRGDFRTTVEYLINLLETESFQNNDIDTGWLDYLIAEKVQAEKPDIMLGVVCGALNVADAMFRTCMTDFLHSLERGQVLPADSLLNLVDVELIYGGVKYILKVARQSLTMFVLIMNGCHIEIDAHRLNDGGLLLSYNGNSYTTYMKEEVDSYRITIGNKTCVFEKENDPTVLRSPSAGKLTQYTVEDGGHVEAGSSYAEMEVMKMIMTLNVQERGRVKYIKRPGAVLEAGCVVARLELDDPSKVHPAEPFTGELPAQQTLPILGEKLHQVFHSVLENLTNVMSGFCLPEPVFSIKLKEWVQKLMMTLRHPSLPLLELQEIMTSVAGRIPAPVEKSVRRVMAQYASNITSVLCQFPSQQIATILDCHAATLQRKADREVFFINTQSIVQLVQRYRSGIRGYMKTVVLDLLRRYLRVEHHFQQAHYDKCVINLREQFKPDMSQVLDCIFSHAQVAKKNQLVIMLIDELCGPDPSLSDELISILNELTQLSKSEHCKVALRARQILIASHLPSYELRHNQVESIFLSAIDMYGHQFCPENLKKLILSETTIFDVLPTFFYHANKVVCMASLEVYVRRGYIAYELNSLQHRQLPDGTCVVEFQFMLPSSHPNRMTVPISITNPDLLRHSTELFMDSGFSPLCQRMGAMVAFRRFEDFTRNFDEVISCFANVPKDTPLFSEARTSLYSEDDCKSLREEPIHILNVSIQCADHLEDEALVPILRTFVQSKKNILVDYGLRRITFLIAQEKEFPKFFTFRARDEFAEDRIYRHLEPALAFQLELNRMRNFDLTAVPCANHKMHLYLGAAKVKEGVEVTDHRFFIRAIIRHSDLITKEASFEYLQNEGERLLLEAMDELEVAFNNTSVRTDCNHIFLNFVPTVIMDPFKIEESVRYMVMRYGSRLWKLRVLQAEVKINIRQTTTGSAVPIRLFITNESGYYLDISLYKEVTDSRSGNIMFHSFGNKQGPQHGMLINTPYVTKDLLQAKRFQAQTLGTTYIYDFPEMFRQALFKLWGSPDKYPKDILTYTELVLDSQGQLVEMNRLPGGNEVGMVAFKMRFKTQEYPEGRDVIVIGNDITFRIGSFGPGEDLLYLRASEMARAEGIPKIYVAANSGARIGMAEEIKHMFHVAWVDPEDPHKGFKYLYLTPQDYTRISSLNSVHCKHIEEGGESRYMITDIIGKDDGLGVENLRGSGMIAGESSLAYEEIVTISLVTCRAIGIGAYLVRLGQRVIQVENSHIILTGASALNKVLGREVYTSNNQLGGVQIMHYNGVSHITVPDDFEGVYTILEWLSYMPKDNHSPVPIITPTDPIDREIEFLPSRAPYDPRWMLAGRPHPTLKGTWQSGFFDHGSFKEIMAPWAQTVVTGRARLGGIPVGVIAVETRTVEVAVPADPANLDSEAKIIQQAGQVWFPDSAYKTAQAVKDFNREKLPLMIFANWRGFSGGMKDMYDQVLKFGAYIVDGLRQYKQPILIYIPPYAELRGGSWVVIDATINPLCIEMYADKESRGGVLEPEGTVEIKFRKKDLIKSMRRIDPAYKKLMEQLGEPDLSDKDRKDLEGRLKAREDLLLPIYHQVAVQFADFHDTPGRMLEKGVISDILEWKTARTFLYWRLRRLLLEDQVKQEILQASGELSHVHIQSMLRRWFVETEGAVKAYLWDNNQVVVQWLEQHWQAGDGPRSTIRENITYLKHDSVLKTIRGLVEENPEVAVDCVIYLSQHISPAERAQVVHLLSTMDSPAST

Row | SMILES | IC50 (rat liver ACC) | IC50 (recombinant human ACC2) | further results
1 | Cc1cc(C(=O)N2CCC3(CC2)CC(=O)c2nn(C4CCC4)cc2O3)cc2cn[nH]c12 [1.039] | 15 nM | 13 nM | 
2 | Cc1cc(C(=O)N2CCC3(CC2)CC(=O)c2nn(C(C)(C)C)cc2O3)cc2cn[nH]c12 [1.042] |  | 4 nM | Percent decrease in Muscle Malonyl-CoA (quadriceps) ([1]; dose 1 mg/kg): 29.90 (5.21) %; Percent decrease in Muscle Malonyl-CoA (quadriceps) ([1]; dose 3 mg/kg): 27.60 (5.87) %; Percent decrease in Muscle Malonyl-CoA (quadriceps) ([1]; dose 10 mg/kg): 61.60 (5.38) %; Percent decrease in Muscle Malonyl-CoA (quadriceps) ([1]; dose 30 mg/kg): 74.70 (1.37) %; Percent decrease in Liver Malonyl-CoA ([2]; dose 1 mg/kg): 41.87 (2.70) %; Percent decrease in Liver Malonyl-CoA ([2]; dose 3 mg/kg): 48.07 (8.08) %; Percent decrease in Liver Malonyl-CoA ([2]; dose 10 mg/kg): 71.81 (2.36) %; Percent decrease in Liver Malonyl-CoA ([2]; dose 30 mg/kg): 86.50 (0.72) %
3 | CCOc1cc(C(=O)N2CCC3(CC2)CC(=O)c2nn(CC)c(C)c2O3)cc2c(CC)n[nH]c12 [1.119] | 13 nM | 18 nM | 
4 | CCOc1cc(C(=O)N2CCC3(CC2)CC(=O)c2nn(C(C)C)cc2O3)cc2cn[nH]c12 [1.123] | 16 nM | 14 nM | 
5 | CCC(C)n1nc2c(c1C)OC1(CCN(C(=O)c3ccc4[nH]nc(C)c4c3)CC1)CC2=O (stereo not shown) [1.137] | 17 nM | 9 nM | 
6 | CCC(C)n1cc2c(n1)C(=O)CC1(CCN(C(=O)c3ccc4[nH]nc(C)c4c3)CC1)O2 (stereo not shown) [1.141] | 32 nM | 19 nM | 

The next lines start with results.

Row | IC50 (rat liver ACC) | IC50 (recombinant human ACC2) | SMILES | further results
7 |  | 411 nM | CCn1nc2c(c1C)OC1(CCN(C(=O)c3ccc4cnsc4c3)CC1)CC2=O [24.003] | 
8 |  | 122 nM | CCn1nc2c(c1C)OC1(CCN(C(=O)c3ccc4nn(C)cc4c3)CC1)CC2=O [25.004] | 
9 |  | 1540 nM | Cc1c2c(nn1C)C(=O)CC1(CCN(C(=O)c3ccc4nn(C)cc4c3)CC1)O2 [25.005] | 
